Test results published in ChEMBL document CHEMBL4665707, “Lung Protection by Cathepsin C Inhibition: A New Hope for COVID-19 and ARDS?” (J Med Chem, 2020).

Columns and labels:
Dipeptidyl peptidase 1 = Dipeptidyl peptidase 1 (Homo sapiens, UniProt P53634); test: Inhibition of human cathepsin C
[1] = Reduction in whole blood neutrophil elastase activity in healthy human subjects at 40 mg dosed daily via oral route; type: functional
[2] = Reduction in whole blood neutrophil elastase activity in healthy human subjects at 10 mg dosed daily via oral route; type: functional
[3] = Reduction in whole blood neutrophil elastase activity in healthy human subjects at 25 mg dosed daily via oral route; type: functional

Sequence of Dipeptidyl peptidase 1 (P53634 25-134 limits assumed): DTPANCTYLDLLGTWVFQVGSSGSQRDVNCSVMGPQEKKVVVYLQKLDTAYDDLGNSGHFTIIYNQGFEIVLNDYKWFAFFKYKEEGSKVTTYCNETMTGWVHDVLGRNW
Sequence of Dipeptidyl peptidase 1 (P53634 231-394 limits assumed): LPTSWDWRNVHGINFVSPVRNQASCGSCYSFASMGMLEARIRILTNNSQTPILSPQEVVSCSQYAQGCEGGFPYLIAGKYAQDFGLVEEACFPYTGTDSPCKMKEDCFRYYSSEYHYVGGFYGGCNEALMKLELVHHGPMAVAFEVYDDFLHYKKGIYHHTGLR
Sequence of Dipeptidyl peptidase 1 (P53634 395-463 limits assumed): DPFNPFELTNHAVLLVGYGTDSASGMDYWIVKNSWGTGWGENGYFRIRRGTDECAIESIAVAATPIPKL

Structure (SMILES) | IC50 (Dipeptidyl peptidase 1) [µM] | inhibition (INH) [1] [%] | inhibition (INH) [2] [%] | inhibition (INH) [3] [%]
CC[C@H](N)C(=O)N[C@]1(C#N)C[C@@H]1c1ccc(-c2ccc(S(=O)(=O)N3CCN(C)CC3)cc2)cc1 | 0.015 |  |  | 
Cn1c(=O)oc2ccc(-c3ccc(C[C@@H](C#N)NC(=O)[C@@H]4CNCCCO4)cc3)cc21 [BRENSOCATIB] |  | 59 | 30 | 49
